Measured values taken from patent US4652562A, “Quinoline derivatives and pharmaceutical compositions” (Egis Gyogyszergyar, priority 1985, dated 1987).

Columns and labels:
[1] = test system: hypoxic Chinese hamster ovary cells; assay: Radiosensitization of hypoxic Chinese hamster ovary cells, radiation survival curves (Do, Dq, N); assay type: cell-based; conditions: for Do (mean lethal dose): hypoxic CHO cells, untreated controls 3.75-3.8 Gy; for Dq (quasi threshold dose): Dq = Do ln N, minimum dose necessary to appearance of cell killing
From the text: As is known [T. W. Wong, G. F. Whitmore and S. Gulyas: Radiat. Res. 75, 541-555 (1978)], parameters derived from radiation survival curves can be used for characterization of modifying effect, e.g. the slope of the exponential portion of survival curve and the calculated mean lethal dose (Do) as well as the overall extrapolation number (N).
The dose multiplication radiosensitization (DMR) means the ability of a given compound to increase the slope of the survival curve and consequently to decrease the mean lethal dose (Do).
On the effect of dose-additive radiosensitization (DAR) there is a reduction in the shoulder region of radiation survival curves, and in the best cases the sigmoid type survival curves characteristic of mammalian cells change into exponential ones.
For the degree of radiation modification, the quasi threshold dose (Dq) can be used, as well. This dose represents the width of shoulder region of radiation survival curves (Dq =Do ln N). The meaning of this measure from radiobiological point of view is the minimal dose necessary to produce appreciable cell killing effect.
1. […] According to the literature data, studies were undertaken on the same test-systems [Chinese hamster ovary cells cultured in vitro (CHO) and under similar circumstances (oxygenic- and hypoxic conditions, α-MEM with 10% foetal calf serum)].
Experiments were undertaken with hypoxic Chinese hamster ovary cells.
4. Determination of the quasi threshold dose (Dq). These values indicate the minimum dose necessary to the appearance of the end point (cell killing) studied from biological point of view.

[2] = cited from earlier work
[3] = Toxicity in test animals (CFLP mice), LD50 per os; conditions: mouse, in vivo, po
hypoxic cells = conditions: literature (Wong et al. 1978); cited from earlier work

| SMILES | Do (mean lethal dose) [1] [Gy] | dose-multiplicative or dose-additive radiosensitization ([2]; 0° C., depending on drug concentration, Harris et al. 1975) | toxicity ([2]; 37° C.) | LD50 [3] [mg/kg] | Dq (quasi threshold dose) [1] [Gy] | Dq (quasi threshold dose) ([1]; listed as misonidazole) | degree of dose-multiplicative and dose-additive radiosensitization (hypoxic cells) |
| --- | --- | --- | --- | --- | --- | --- | --- |
| CN(C)C(=O)N=NC(=O)N(C)C [Diamide, tetramethyl-diazene-dicarboxamide] | 3.3 | either dose-multiplicative- or dose-additive-radiosensitization could be observed at a lower temperature (0° C.) depending on the drug concentration applied, but both effects did not appear simultaneously | extremely toxic | – | – | – | – |
| NC(=Nc1c([N+](=O)[O-])cnc2ccccc12)N1CCOCC1 [Example 1, N-(3-Nitro-4-quinolyl)-morpholino carboxamidine] | 1.7 | – | – | > 2000 | 0 | – | – |
| COCC(O)Cn1ccnc1[N+](=O)[O-] (stereo not shown) [Misonidazole, 3-methoxy-1-(2-nitro-1-imidazole-1-yl)-2-propanol] | 2.5 | – | – | – | 5 | above 5 Gy | only in a small degree |
